What was measured:
[1] = system: SD female rats; test: Measurement of urethral resistance increasing effect (leak point pressure, oral administration); format: in vivo, rat
Protocol: The urethral resistance increasing effect in rat was measured by a modified method of Matsumoto et al. (WO2009/063992) as follows. That is, SD female rats (CLEA Japan, Inc.) were anesthetized with isoflurane (1.0%; Abbott), and the spinal cord was transected at Th8-9 to avoid the voiding reflex. After laparotomy, an intravesical pressure measurement catheter and a saline infusion catheter (PE-100; Clay Adams) were inserted into the bladder. Thereafter, the abdomen of the rat was closed with aronalpha A “Sankyo” (Daiichi Sankyo). The rat with an inserted catheter was placed in a Bollman cage (KN-326 Bollman cage TYPE III; Natsume). The intravesical pressure measurement catheter was connected to a computer via a pressure transducer (DX-100; Nihon Koden), an amplifier (RPM-6008M; Nihon Koden/303638; SAN-EI), and a multi-channel data analyzer (MP150/MP100; Biopack), and changes in the intravesical pressure were recorded on a hard disc at a frequency of 100 samples/sec. The saline infusion catheter was connected to a 50 mL syringe (Terumo) filled with saline colored with Evans Blue (Wako). The saline was infused into the bladder from the 50 mL syringe filled with saline at a rate of 0.1 mL/sec by using an infusion pump (Kds100; KD Scientific). When the saline leaked from the urethral orifice, infusion was discontinued, and the saline in the bladder was released. The maximum pressure observed during infusion of saline into the bladder and leakage thereof was taken as an LPP (Leak point pressure) value. The measurement was repeated until the LPP value was stabilized, and an average of continuous three stable LPP values was taken as the result. In addition, the measurement of drug effect was started 1 hr after the animal was placed in the Bollman cage. The LPP value (Pre value) was measured, a drug was orally administered, and the measurement of LPP value (Post value) was again started 15 min, 30 min, 1 hr, 2 hr and 4 hr after administration. The urethral resistance increasing effect by the drug was shown by the difference between the LPP value (Post value) and LPP value (Pre value). The drug was orally administered at 2.0 mL/kg, using 0.5% methylcellulose as a vehicle. For detection of a significant difference in the urethral resistance increasing effect by the drug as compared to the vehicle, the following method was used. For comparison of 3 or more groups, the Williams' test was used for a parametric test, and the Shirley-Williams' test was used for a non-parametric test. For comparison of 2 groups, the Student's t-test was used for a parametric test, and the […] was used for a non-parametric test.

[2] = molecular target: T1, human dopamine transporter (Homo sapiens, UniProt Q01959); test: Inhibitory action on human dopamine transporter ([3H]-dopamine uptake in CHO cells); format: cell-based; settings: CHO, compound 1 μM; relative to inhibitory activity of 100 μM Nomifensine as 100%; read-out: inhibitory rate (%)
T1 construct: expressed in transfected cells
T1 sequence (Q01959 whole entry): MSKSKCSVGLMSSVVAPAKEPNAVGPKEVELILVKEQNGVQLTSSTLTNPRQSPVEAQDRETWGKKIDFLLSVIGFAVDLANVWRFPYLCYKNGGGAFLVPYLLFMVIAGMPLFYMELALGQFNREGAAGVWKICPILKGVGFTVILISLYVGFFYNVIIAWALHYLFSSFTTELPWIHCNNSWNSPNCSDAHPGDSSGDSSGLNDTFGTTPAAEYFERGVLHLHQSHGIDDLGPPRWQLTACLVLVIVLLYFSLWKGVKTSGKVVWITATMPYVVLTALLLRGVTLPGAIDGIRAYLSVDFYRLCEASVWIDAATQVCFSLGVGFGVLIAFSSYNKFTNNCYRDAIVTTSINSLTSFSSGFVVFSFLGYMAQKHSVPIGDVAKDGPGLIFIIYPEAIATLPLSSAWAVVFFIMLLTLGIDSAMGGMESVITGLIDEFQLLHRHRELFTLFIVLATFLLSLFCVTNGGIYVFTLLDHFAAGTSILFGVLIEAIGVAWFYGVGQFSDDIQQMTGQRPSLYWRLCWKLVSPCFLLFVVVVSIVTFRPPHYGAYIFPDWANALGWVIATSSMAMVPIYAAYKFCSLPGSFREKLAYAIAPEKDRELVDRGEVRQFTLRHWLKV
How it was run: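 CHO-K1 cells stably expressing human dopamine transporter, exposed to compound at 10 μM or 1 μM in HEPES-buffered saline with 0.5% BSA. [3H]-dopamine uptake measured over 60 min by scintillation counting. Activity expressed relative to 100 μM nomifensine as 100%.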

inhibition at 1 µM [2] | Compound | urethral resistance increasing effect (cmH2O) ([1]; 3.0 mg/kg oral, 15 min later) | urethral resistance increasing effect (cmH2O) ([1]; 3.0 mg/kg oral, 30 min later) | urethral resistance increasing effect (cmH2O) ([1]; 10.0 mg/kg oral, 15 min later) | urethral resistance increasing effect (cmH2O) ([1]; 10.0 mg/kg oral, 30 min later)
53% | O=c1[nH]c(-c2ccccc2O[C@@H]2CNCCO[C@H]2c2ccc(Cl)c(F)c2)no1 [Example 577, 3-(2-{[(6R, 7S)-7-(4-chloro-3-fluoro-phenyl)-1,4-oxazepan-6-yl]oxy}phenyl)-1,2,4-oxadiazol-5(4H)-one] | 14.3 ± 3.0 cmH2O | 13.1 ± 3.1 cmH2O | 18.7 ± 1.8 cmH2O | 15.4 ± 1.5 cmH2O
57% | O=c1[nH]c(-c2ncccc2O[C@@H]2CNCCO[C@H]2c2ccc(Cl)c(F)c2)no1 [Example 584, 3-(3-{[(6R, 7S)-7-(4-chloro-3-fluorophenyl)-1,4-oxazepan-6-yl]oxy}pyridin-2-yl)-1,2,4-oxadiazol-5(4H)-one] | 9.5 ± 3.5 cmH2O | 7.2 ± 2.6 cmH2O | 18.4 ± 3.4 cmH2O | 16.2 ± 3.3 cmH2O

Source: patent publication US20130267494A1, “1,4-OXAZEPANE DERIVATIVES” (priority 2010, published 2013)
